# Laboratory results published in patent publication US20240327393A1 (SIRONAX LTD., priority 2021, published 2024).
# Tested on: HT-1080 (ATCC, CCL-121) cells
# Test: HT-1080 cell viability assay with ferroptosis inducer RSL3 (Cell Titer-Glo)
# Format: cell-based
# Conditions: HT-1080 cells treated with RSL3; 3-fold, 10-point dilution, 1.1 μM highest concentration; Table 3; read-out: EC50 (nM), ferroptosis inhibitory activity
# Method in brief: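 EC50 was derived by sigmoidal dose-response regression of CellTiter-Glo luminescence viability, expressed relative to untreated wells. Compounds were tested in a ten-point, threefold dilution series (highest 1.1 μM) in the presence of the ferroptosis inducer RSL3. HT-1080 cells had been seeded at 6000 per well and grown overnight first.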
row,EC50 [nM],Structure (SMILES)
1,0.1 to 100,"Cc1cc(Nc2ccc3c(c2)OCC(=O)N3CCO)ccc1N1CC(C)OC(C)C1 (stereo not drawn) [Compound 461, 7-((4-(2,6-dimethylmorpholino)-3-methylphenyl)amino)-4-(2-hydroxyethyl)-2H-benzo[b][1,4]oxazin-3(4H)-one]"

# Same assay, conditions: Homo sapiens; HT-1080 cells treated with RSL3; 3-fold, 10-point dilution, 1.1 μM highest concentration; Table 3; read-out: EC50 (nM), ferroptosis inhibitory activity
row,EC50 [nM],Structure (SMILES)
1,0.1 to 100,"O=C1COc2cc(Nc3cnc(N4CCC(C(F)(F)F)CC4)c(F)c3)ccc2N1 [Compound 459, 7-((5-fluoro-6-(4-(trifluoromethyl)piperidin-1-yl)pyridin-3-yl)amino)-2H-benzo[b][1,4]oxazin-3(4H)-one]"
2,0.1 to 100,"Cc1cc(N2CCC(C(F)(F)F)CC2)ccc1Nc1cnc2c(c1)OCC(=O)N2 [Compound 460, 7-((2-methyl-4-(4-(trifluoromethyl)piperidin-1-yl)phenyl)amino)-2H-pyrido[3,2-b][1,4]oxazin-3(4H)-one]"
3,0.1 to 100,"Cc1cc(N2CC(C)OC(C)C2)ccc1Nc1cnc2c(c1)OCC(=O)N2 (stereo not drawn) [Compound 462, 7-((4-(2,6-dimethylmorpholino)-2-methylphenyl)amino)-2H-pyrido[3,2-b][1,4]oxazin-3(4H)-one]"
4,0.1 to 100,"Cc1cc(Nc2ccc(N3CC(C)OC(C)C3)cc2)cc2c1N(C)C(=O)CO2 (stereo not drawn) [Compound 463, 7-{[4-(2,6-dimethylmorpholin-4-yl)phenyl]amino}-4,5-dimethyl-2H-1,4-benzoxazin-3-one]"
5,0.1 to 100,"COc1cc(Nc2cnc3c(c2)OCC(=O)N3C)ccc1N1CCC(C(F)(F)F)CC1 [Compound 464, 7-({3-methoxy-4-[4-(trifluoromethyl)piperidin-1-yl]phenyl}amino)-4-methyl-2H-pyrido[3,2-b][1,4]oxazin-3-one]"
6,0.1 to 100,"COc1cc(Nc2cnc3c(c2)OCC(=O)N3)ccc1N1CCC(C(F)(F)F)CC1 [Compound 465, 7-((3-methoxy-4-(4-(trifluoromethyl)piperidin-1-yl)phenyl)amino)-2H-pyrido[3,2-b][1,4]oxazin-3(4H)-one]"
7,0.1 to 100,"O=C1COc2cc(Nc3ccc(N4CCC(C(F)(F)F)CC4)cc3F)ccc2N1 [Compound 466, 7-((2-fluoro-4-(4-(trifluoromethyl)piperidin-1-yl)phenyl)amino)-2H-benzo[b][1,4]oxazin-3(4H)-one]"
8,0.1 to 100,"Cc1cc(N2CCC(C(F)(F)F)CC2)ccc1Nc1ccc2oc(=O)[nH]c2c1 [Compound 467, 5-((2-methyl-4-(4-(trifluoromethyl)piperidin-1-yl)phenyl)amino) benzo[d]oxazol-2(3H)-one]"
9,0.1 to 100,"Cc1cc(N2CCC(C(F)(F)F)CC2)ccc1Nc1cc(C#N)c2c(c1)OCC(=O)N2 [Compound 468, 7-((2-methyl-4-(4-(trifluoromethyl)piperidin-1-yl)phenyl)amino)-3-oxo-3,4-dihydro-2H-benzo[b][1,4]oxazine-5-carbonitrile]"
10,0.1 to 100,"CN1C(=O)COc2cc(Nc3ccc(N4CCC(C(F)(F)F)CC4)cc3)c(N)cc21 [Compound 469, 6-amino-4-methyl-7-((4-(4-(trifluoromethyl)piperidin-1-yl)phenyl)amino)-2H-benzo[b][1,4]oxazin-3(4H)-one]"
11,0.1 to 100,"Cc1cc(N2CCCCC2)ccc1Nc1ccc2c(c1)OCC(=O)N2 [Compound 470, 7-((2-methyl-4-(piperidin-1-yl)phenyl)amino)-2H-benzo[b][1,4]oxazin-3(4H)-one]"
12,0.1 to 100,"CC[C@@H]1CN(c2ccc(Nc3ccc4c(c3)OCC(=O)N4)c(C)n2)C[C@@H](C)O1 [Compound 471, 7-((6-((2R,6R)-2-ethyl-6-methylmorpholino)-2-methylpyridin-3-yl)amino)-2H-benzo[b][1,4]oxazin-3(4H)-one]"
13,0.1 to 100,"CCC1Oc2cc(Nc3ccc(C4CCOCC4)cc3)ccc2N(C)C1=O (stereo not drawn) [Compound 472, 2-ethyl-4-methyl-7-((4-(tetrahydro-2H-pyran-4-yl)phenyl)amino)-2H-benzo[b][1,4]oxazin-3(4H)-one]"
14,0.1 to 100,"Cc1cc(N2CCC(C(F)(F)F)CC2)ccc1Nc1cc(C)c2c(c1)OCC(=O)N2 [Compound 473, 5-methyl-7-((2-methyl-4-(4-(trifluoromethyl)piperidin-1-yl)phenyl)amino)-2H-benzo[b][1,4]oxazin-3(4H)-one]"
15,0.1 to 100,"O=C1COc2cc(Nc3ccc(N4CCC(C(F)(F)F)CC4)nc3)ccc2N1 [Compound 474, 7-((6-(4-(trifluoromethyl)piperidin-1-yl)pyridin-3-yl)amino)-2H-benzo[b][1,4]oxazin-3(4H)-one]"
16,0.1 to 100,"O=C1COc2cc(Nc3cnc(N4CCC(C(F)(F)F)CC4)nc3)ccc2N1 [Compound 475, 7-((2-(4-(trifluoromethyl)piperidin-1-yl)pyrimidin-5-yl)amino)-2H-benzo[b][1,4]oxazin-3(4H)-one]"
17,0.1 to 100,O=C1COc2cc(Nc3ccc(N4CCC(C(F)(F)F)CC4)cn3)ccc2N1 [Compound 476]
18,0.1 to 100,"Cc1cc(N2CCC(C(F)(F)F)CC2)ccc1Nc1cc2c(cc1C)N(C)C(=O)CO2 [Compound 477, 4,6-dimethyl-7-((2-methyl-4-(4-(trifluoromethyl)piperidin-1-yl)phenyl)amino)-2H-benzo[b][1,4]oxazin-3(4H)-one]"

row,EC50 [nM],Structure (SMILES)
1,0.1 to 100,"CC1CC(c2ccc(Nc3ccc4c(c3)OCC(=O)N4)cc2)CCO1 (stereo not drawn) [Compound 479, 7-((4-(2-methyltetrahydro-2H-pyran-4-yl)phenyl)amino)-2H-benzo[b][1,4]oxazin-3(4H)-one]"
2,0.1 to 100,"Cc1cc(N2CCC(C(F)(F)F)CC2)ccc1Nc1cc(F)c2c(c1)OCC(=O)N2 [Compound 480, 5-fluoro-7-((2-methyl-4-(4-(trifluoromethyl)piperidin-1-yl)phenyl)amino)-2H-benzo[b][1,4]oxazin-3(4H)-one]"
3,0.1 to 100,"Cc1cc(Nc2cc(F)c3c(c2)OCC(=O)N3)ccc1N1CCC(C(F)(F)F)CC1 [Compound 481, 5-fluoro-7-((3-methyl-4-(4-(trifluoromethyl)piperidin-1-yl)phenyl)amino)-2H-benzo[b][1,4]oxazin-3(4H)-one]"
4,0.1 to 100,"Cc1cc(N2CCC(C(F)(F)F)CC2)ccc1Nc1ccc2c(c1)OC(C)C(=O)N2 (stereo not drawn) [Compound 482, 2-methyl-7-((2-methyl-4-(4-(trifluoromethyl)piperidin-1-yl)phenyl)amino)-2H-benzo[b][1,4]oxazin-3(4H)-one]"
5,0.1 to 100,"CCC1Oc2cc(Nc3ccc(N4CCC(C(F)(F)F)CC4)cc3C)ccc2NC1=O (stereo not drawn) [Compound 483, 2-ethyl-7-((2-methyl-4-(4-(trifluoromethyl)piperidin-1-yl)phenyl)amino)-2H-benzo[b][1,4]oxazin-3(4H)-one]"
6,0.1 to 100,"C[C@@H]1C[C@H](c2ccc(Nc3ccc4c(c3)OCC(=O)N4)cc2)CCO1 [Compound 484, 7-((4-((2R,4R)-2-methyltetrahydro-2H-pyran-4-yl)phenyl)amino)-2H-benzo[b][1,4]oxazin-3(4H)-one]"
7,0.1 to 100,"COc1cc(Nc2ccc3c(c2)OCC(=O)N3)ccc1N1CCC(C(F)(F)F)CC1 [Compound 485, 7-((3-methoxy-4-(4-(trifluoromethyl)piperidin-1-yl)phenyl)amino)-2H-benzo[b][1,4]oxazin-3(4H)-one]"
8,0.1 to 100,"O=C1COc2cc(Nc3ccc(N4CCC(C(F)(F)F)CC4)c(F)c3)ccc2N1 [Compound 486, 7-((3-fluoro-4-(4-(trifluoromethyl)piperidin-1-yl)phenyl)amino)-2H-benzo[b][1,4]oxazin-3(4H)-one]"
9,0.1 to 100,"Cc1c(Nc2ccc3c(c2)OCC(=O)N3)ccc(N2CCC(C(F)(F)F)CC2)c1C [Compound 487, 7-((2,3-dimethyl-4-(4-(trifluoromethyl)piperidin-1-yl)phenyl)amino)-2H-benzo[b][1,4]oxazin-3(4H)-one]"
10,0.1 to 100,"Cc1cc(N2CCC(C(F)(F)F)CC2)c(F)cc1Nc1ccc2c(c1)OCC(=O)N2 [Compound 488, 7-((5-fluoro-2-methyl-4-(4-(trifluoromethyl)piperidin-1-yl)phenyl)amino)-2H-benzo[b][1,4]oxazin-3(4H)-one]"
11,0.1 to 100,"Cc1nc(N2CCC(C(F)(F)F)CC2)ccc1Nc1ccc2c(c1)OCC(=O)N2 [Compound 489, 7-((2-methyl-6-(4-(trifluoromethyl)piperidin-1-yl)pyridin-3-yl)amino)-2H-benzo[b][1,4]oxazin-3(4H)-one]"
12,0.1 to 100,"Cc1cc(N2CCC(C)CC2)ccc1Nc1ccc2c(c1)OCC(=O)N2C [Compound 490, 4-methyl-7-((2-methyl-4-(4-methylpiperidin-1-yl)phenyl)amino)-2H-benzo[b][1,4]oxazin-3(4H)-one]"
13,0.1 to 100,"Cc1cc(N2CCC(C)CC2)ccc1Nc1ccc2c(c1)OCC(=O)N2 [Compound 491, 7-((2-methyl-4-(4-methylpiperidin-1-yl)phenyl)amino)-2H-benzo[b][1,4]oxazin-3(4H)-one]"
14,0.1 to 100,"Cc1c(Nc2ccc3c(c2)OCC(=O)N3C)ccc(N2CCC(C(F)(F)F)CC2)c1C#N [Compound 492, 2-methyl-3-((4-methyl-3-oxo-3,4-dihydro-2H-benzo[b][1,4]oxazin-7-yl)amino)-6-(4-(trifluoromethyl)piperidin-1-yl)benzonitrile]"
15,0.1 to 100,"Cc1cc(N2C[C@@H](C)O[C@@H](C)C2)ccc1Nc1ccc2[nH]cnc2c1 [Compound 493, N-(4-((2R,6S)-2,6-dimethylmorpholino)-2-methylphenyl)-1H-benzo[d] imidazol-5-amine]"
16,0.1 to 100,"Cc1cc(N2C[C@@H](C)O[C@@H](C)C2)ccc1Nc1ccc2c(c1)CNC(=O)N2 [Compound 494, 6-((4-((2R,6S)-2,6-dimethylmorpholino)-2-methylphenyl)amino)-3,4-dihydroquinazolin-2(1H)-one]"
17,0.1 to 100,"CN1C(=O)COc2cc(Nc3ccc(N4CCC(C(F)(F)F)CC4)cc3)c(O)cc21 [Compound 495, 6-hydroxy-4-methyl-7-({4-[4-(trifluoromethyl)piperidin-1-yl]phenyl}amino)-2H-1,4-benzoxazin-3-one]"
